Results published in patent US11077115B2, “Rorgamma modulators and uses thereof” (Genfit, priority 2017, dated 2021).

Legend:
[1] = tested on: patients with moderate to severe psoriasis; conditions: cited from earlier work
psoriasis model = conditions: administered by injection; cited from earlier work
multiple sclerosis model = conditions: administered by injection; cited from earlier work
human RORγt [2] = molecular target: T1, human RORγt (Homo sapiens, UniProt P51449); assay: RORE Luciferase/RORγt transactivation assay (IL-17 promoter luciferase reporter in COS-7 cells); type: cell-based; set-up: V5-His (named only through the vector pcDNA3.1D/V5-His-TOPO); expressed in transfected cells; host or cells: COS-7 (monkey kidney); conditions: RORγt activity inhibition, luciferase activity in transfected COS-7 cells, 20 h
T1 sequence (P51449 1-497 isoform P51449-2): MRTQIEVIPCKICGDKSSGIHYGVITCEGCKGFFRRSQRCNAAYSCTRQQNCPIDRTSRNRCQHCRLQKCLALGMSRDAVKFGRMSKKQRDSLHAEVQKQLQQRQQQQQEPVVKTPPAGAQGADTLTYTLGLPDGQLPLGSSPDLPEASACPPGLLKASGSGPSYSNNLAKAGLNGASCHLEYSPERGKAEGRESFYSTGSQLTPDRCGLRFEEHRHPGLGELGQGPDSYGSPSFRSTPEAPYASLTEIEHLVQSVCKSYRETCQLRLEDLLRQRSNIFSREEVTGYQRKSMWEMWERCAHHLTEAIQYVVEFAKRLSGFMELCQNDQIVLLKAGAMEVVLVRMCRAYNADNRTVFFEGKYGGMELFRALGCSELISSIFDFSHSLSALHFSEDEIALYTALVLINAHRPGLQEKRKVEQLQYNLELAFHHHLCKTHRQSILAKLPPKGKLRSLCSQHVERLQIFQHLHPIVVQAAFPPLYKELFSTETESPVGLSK
In short: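 COS-7 cells co-transfected with human RORγt and luciferase reporter driven by 4.3 kb IL-17 promoter with CNS enhancer, seeded in serum-free, phenol red-free DMEM. Compounds added at 0.3% DMSO final; luciferase read by Steady-Glo luminescence. IC50 (μM) and Emax (%) reported.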

[3] = molecular target: T2, RORγt ligand-binding domain (RORγt-LBD) (Homo sapiens, UniProt P51449); assay: Time-resolved FRET (TR-FRET) RORγt coactivator assay (RIP140 peptide displacement); type: biochemical; conditions: ligand-dependent coactivator-RORγt binding
T2 construct: 20 nM recombinantly expressed RORγ-LBD fused to GST
T2 sequence (P51449 269-508 limits assumed): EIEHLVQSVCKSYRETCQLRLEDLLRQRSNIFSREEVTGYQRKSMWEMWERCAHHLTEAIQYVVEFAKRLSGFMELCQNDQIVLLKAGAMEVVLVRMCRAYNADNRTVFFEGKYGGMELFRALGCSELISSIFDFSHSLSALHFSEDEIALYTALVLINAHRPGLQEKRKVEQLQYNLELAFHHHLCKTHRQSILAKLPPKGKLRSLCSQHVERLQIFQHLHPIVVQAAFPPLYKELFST
In short: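 GST-tagged RORγt-LBD (20 nM) with 30 nM biotinylated RIP140 peptide, 1 nM streptavidin-terbium and 20 nM d2-anti-GST in CHAPS buffer with DTT, EDTA, BSA; 1% DMSO. Compounds 0.3 nM–30 μM, 2 h dark, room temperature. Coactivator displacement lowers TR-FRET signal; IC50 (μM) and Emax (%) derived.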

human RORγt [4] = molecular target: T1, human RORγt; assay: IL-17 secretion from EL4 murine lymphoma overexpressing human RORγt; type: cell-based; set-up: V5-His (named only through the vector pcDNA3.1D/V5-His-TOPO); expressed in transfected cells; conditions: IL-17 secretion inhibition in human RORγt-transfected EL4 Tcells, PMA/ionomycin stimulation
In short: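 EL4 murine lymphoma cells electroporated with hRORγt plasmid, seeded 150000 cells/well, pretreated with compound, then stimulated with PMA (10 ng/mL) and ionomycin (1 μM final) with compound for a further 24 h at 37° C. IL-17 in supernatant measured by HTRF or ELISA.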

[5] = relative to placebo, patients with moderate to severe psoriasis

IC50 (human RORγt [2])	IC50 [3]	IC50 (human RORγt [4])	SMILES	further results
–	–	–	CCS(=O)(=O)c1ccc(CNC(=O)c2cnc3c(c2)CN(C[C@H]2CC[C@H](C(F)(F)F)CC2)[C@H]3C(C)C)nc1 [VTP-43742]	reduction in the Psoriasis Area Severity Index (PASI) score relative to placebo ([1]; 350 mg dose group): 24%; placebo-adjusted PASI score reduction ([1]; 700 mg dose group): 30%; Psoriasis Area Severity Index (PASI) score [1, 5]: reduced; plasma IL-17 levels [1, 5]: reduced
–	–	–	Cc1ccc([C@@H](NC(=O)Cc2ccc3oc([C@@H](O)c4c(C)noc4C)cc3c2)c2ccccc2)c(C)c1 [TMP778]	efficacy in psoriasis model (psoriasis model): efficacious
–	–	–	CC(=O)Nc1nc(C)c(S(=O)(=O)Nc2ccc(C(O)(C(F)(F)F)C(F)(F)F)cc2)s1 [SR1001]	efficacy in multiple sclerosis model (multiple sclerosis model): efficacious
0.1 to 1 µM	< 1 µM	0.1 to 1 µM	Cc1ccc(C(NC(=O)C2(c3cnc(N4CCS(=O)(=O)CC4)nc3)CC2)c2ccc(Cl)cc2Cl)o1 (stereo not drawn) [Cpd. 54, N-[(2,4-dichlorophenyl)(5-methylfuran-2-yl)methyl]-1-[2-(1,1-dioxo-1-thiomorpholin-4-yl)pyrimidin-5-yl]cyclopropane-1-carboxamide]	–
0.1 to 1 µM	< 1 µM	< 1 µM	COc1ccc(C(NC(=O)Cc2ccc(N3CCS(=O)(=O)CC3)c(C)c2)c2ccc(C)o2)c(N2CC3CC3C2)c1 (stereo not drawn) [Cpd. 16, N-[(2-{3-azabicyclo[3.1.0]hexan-3-yl}-4-methoxyphenyl)(5-methylfuran-2-yl)methyl]-2-[4-(1,1-dioxo-1-thiomorpholin-4-yl)-3-methylphenyl]acetamide]	–
0.1 to 1 µM	< 1 µM	0.1 to 1 µM	Cc1ccc(C(NC(=O)Cc2ccc(N3CCS(=O)(=O)CC3)c(C)c2)c2ccc(C)o2)c(Br)c1 (stereo not drawn) [Cpd. 11, N-[(2-bromo-4-methylphenyl)(5-methylfuran-2-yl)methyl]-2-[4-(1,1-dioxo-1-thiomorpholin-4-yl)-3-methylphenyl]acetamide]	–
1 to 10 µM	0.1 to 1 µM	0.1 to 1 µM	CC(C)CC(NC(=O)C1(c2ccc(N3CCS(=O)(=O)CC3)cc2)CC1)c1ccccc1N1CCCCC1 (stereo not drawn) [Cpd. 59, 1-[4-(1,1-dioxo-1-thiomorpholin-4-yl)phenyl]-N-[3-methyl-1-[2-(piperidin-1-yl)phenyl]butyl]cyclopropane-1-carboxamide]	–
0.1 to 1 µM	< 1 µM	< 1 µM	Cc1ccc(C(NC(=O)C2(c3ccc(N4CCS(=O)(=O)CC4)cc3)CC2)c2ccccc2N2CCCCC2)o1 (stereo not drawn) [Cpd. 60, 1-[4-(1,1-dioxo-1-thiomorpholin-4-yl)phenyl]-N-[(5-methylfuran-2-yl)[2-(piperidin-1-yl)phenyl]methyl]cyclopropane-1-carboxamide]	–
